Laboratory results published in patent US20220265830A1, “LONG-ACTING FORMULATIONS AND VEHICLES” (DURECT CORPORATION, priority 2019, published 2022).
Converted amounts (≈) assume the structure as drawn. Read-outs that look alike come from different tables or passages of the source. Marks after values point to notes of the source that are not given here.

Tests used:
[1] = Experimental, cited from earlier work
[2] = in vivo; cited from earlier work
[3] = Experimental (Buprenorphine at 25° C.); cited from earlier work
[4] = Experimental; cited from earlier work
physchem = settings: BB
Description: Briefly, samples were prepared by mixing active agent and solvent and were tested at various time points after mixing and after storage at various temperatures. The samples were tested for the solubility of the active agent (mg/mL), calculated as the free base equivalent. Each data point is the average of two replicates unless otherwise specified.

[5] = cited from earlier work

Compound | Oral Half-life [2] | logP [4] | further results
O=C1CCc2ccc(OCCCCN3CCN(c4cccc(Cl)c4Cl)CC3)cc2N1 [Aripiprazole] | 75 h |  | Water Solubility [1]: 0.00001%
CN1CC2c3ccccc3Oc3ccc(Cl)cc3C2C1 (centres unmarked) [Asenapine] | ~24 h |  | 
Nc1ncn([C@@H]2O[C@H](CO)[C@@H](O)[C@H]2O)c(=O)n1 [Azacitidine] | ~4 h |  | 
O=c1ccc2ccc(OCCCCN3CCN(c4cccc5sccc45)CC3)cc2[nH]1 [Brexpiprazoie] | 91 h |  | 
C[C@@](Cc1ccc(O)c(O)c1)(NN)C(=O)O [Carbidopa] | ~1.78 h | −1.9 | pKa [3]: 2.3; Water Solubility [1]: 3.8 mg/mL
Nc1ncn([C@H]2C[C@H](O)[C@@H](CO)O2)c(=O)n1 [Decitabine] | 0.51 ± 0.31 h |  | 
C[C@@H]1CCO[C@H]2Cn3cc(C(=O)NCc4ccc(F)cc4F)c(=O)c(O)c3C(=O)N12 [Dolutegravir] | 14 h | 2.2 | Water Solubility ([1]; in words): Slightly soluble
COc1cc2c(cc1Cc1cccc(Cl)c1F)c(=O)c(C(=O)O)cn2[C@H](CO)C(C)C [Elvitegravir] | 8.7 h |  | 
CCNC(=O)[C@@H]1CCCN1C(=O)[C@H](CCCNC(=N)N)NC(=O)[C@H](CC(C)C)NC(=O)[C@@H](CC(C)C)NC(=O)[C@H](Cc1ccc(O)cc1)NC(=O)[C@H](CO)NC(=O)[C@H](Cc1c[nH]c2ccccc12)NC(=O)[C@H](Cc1c[nH]cn1)NC(=O)[C@@H]1CCC(=O)N1 [Leuprolide] | ~3 h |  | 
N[C@@H](Cc1ccc(O)c(O)c1)C(=O)O [Levodopa] | 0.833 h | 0.05 | Water Solubility [1]: 5 mM
O=C1[C@@H]2[C@H]3CC[C@H](C3)[C@@H]2C(=O)N1C[C@@H]1CCCC[C@H]1CN1CCN(c2nsc3ccccc23)CC1 [Lurasidone] | 18 to 37 h |  | 
O=C1CC[C@@]2(O)[C@H]3Cc4ccc(O)c5c4[C@@]2(CCN3CC2CC2)[C@H]1O5 [Naltrexone] |  | 1.92 | 
Cc1cc2c(s1)Nc1ccccc1N=C2N1CCN(C)CC1 [Olanzapine] | 21 −54 hrs |  | 
Cc1nc2n(c(=O)c1CCN1CCC(c3noc4cc(F)ccc34)CC1)CCCC2O (centres unmarked) [Paliperidone] | ~23 h | 1.8 | 
Cc1nnc(C(=O)NC(C)(C)c2nc(C(=O)NCc3ccc(F)cc3)c(O)c(=O)n2C)o1 [Raltegravir] | 9 h |  | 
Cc1cc(/C=C/C#N)cc(C)c1Nc1ccnc(Nc2ccc(C#N)cc2)n1 [Rilpivirine] | 34 to 55 h | 4.86 | Water Solubility [1]: <0.1 mg/mL
Cc1cn([C@H]2C=C[C@@H](CO)O2)c(=O)[nH]c1=O [Stavudine] | 0.8 to 1.5 h | −0.72 | Water Solubility ([1]; at 21° C.): 5-10 g/100 mL at
CC(C)OC(=O)[C@H](C)N[P@](=O)(CO[C@H](C)Cn1cnc2c(N)ncnc21)Oc1ccccc1 [TAF Free base, tenofovir alafenamide] |  |  | solubility at 4 days (physchem): 5000 µg/mL (≈ 10.5 mM)
CC(C)OC(=O)[C@H](C)N[P@](=O)(CO[C@H](C)Cn1cnc2c(N)ncnc21)Oc1ccccc1.CC(C)OC(=O)[C@H](C)N[P@](=O)(CO[C@H](C)Cn1cnc2c(N)ncnc21)Oc1ccccc1.O=C(O)/C=C/C(=O)O [TAF Hemifumarate] |  |  | Solubility (mg/mL, Calculated as Free Base Equivalent) (ACN, 37° C./5 days): 11 mg/mL; Solubility (mg/mL, Calculated as Free Base Equivalent) (BB, 37° C., asterisk: taken at 4 days as opposed to 5 days): 3.9* mg/mL; Solubility (mg/mL, Calculated as Free Base Equivalent) (DCM, 37° C./5 days): 97 mg/mL; Solubility (mg/mL, Calculated as Free Base Equivalent) (DMSO, 37° C./5 days): 132 mg/mL; Solubility (mg/mL, Calculated as Free Base Equivalent) (NMP, 37° C./5 days): 160 mg/mL; Solubility (mg/mL, Calculated as Free Base Equivalent) (PC, 37° C./5 days): 22 mg/mL
Nc1ccn([C@H]2CC[C@@H](CO)O2)c(=O)n1 [Zalcitabine] | 2 h |  | 
sucrose acetate isobutyrate [SAIB] |  |  | viscosity ([5]; at 37° C.): about 320,000 cP; viscosity ([5]; at 80° C.): about 600 cP; viscosity ([5]; at about 25° C.): about 2 million
